In patent US20100209542A1, “Methods For Treating Withdrawal From Addictive Compounds” (priority 2008, published 2010):

Key:
withdrawal symptoms = test: compound followed by naloxone administration (control values); format: in vivo, mice
Method: (§1) In this experiment mice were chronically administered either morphine using an increasing dose paradigm starting at 20 mg/kg and ending at 100 mg/kg (i.p.) or a saline vehicle control for six days. […] Morphine withdrawal symptoms were initiated by the injection of naloxone (10 mg/kg; i.p.). Kratom extract and mitragyine reduced naloxone-precipitated morphine withdrawal symptoms in a similar manner as methadone.

[1] = tested on: morphine withdrawal symptoms; test: naloxone-precipitated morphine withdrawal symptoms after replacement with compound; format: in vivo, mice; details: for Jumping Frequency / Last Day % Weight Control / Locomotor Activity / Paw Tremor Frequency / Teeth Chattering Frequency / Wet Dog Shakes Frequency: + 10 mg/kg naloxone i.p.
Method: as §1

respiratory depression = details: rat, even at doses of 800 mg/kg, intraperitoneal; cited from earlier work
Adrenergic (Alpha 2) = test: high throughput radioligand binding screen, Adrenergic (Alpha 2)
[2] = animal studies; cited from earlier work
delta-opioid receptor = biological target: T1, delta-opioid receptor (Cavia porcellus, UniProt A0A286XTF2); details: guinea pig brain membranes; cited from earlier work
T1 construct: determined using guinea pig brain membranes; from tissue; host or cells: guinea pig brain membranes

Serotonin, 5HT2C = biological target: T2, Serotonin, 5HT2C (Homo sapiens, UniProt P28335); test: high throughput radioligand binding screen, Serotonin 5HT2C
T2 construct: Novascreen Biosciences Corp
T2 sequence (P28335 33-458): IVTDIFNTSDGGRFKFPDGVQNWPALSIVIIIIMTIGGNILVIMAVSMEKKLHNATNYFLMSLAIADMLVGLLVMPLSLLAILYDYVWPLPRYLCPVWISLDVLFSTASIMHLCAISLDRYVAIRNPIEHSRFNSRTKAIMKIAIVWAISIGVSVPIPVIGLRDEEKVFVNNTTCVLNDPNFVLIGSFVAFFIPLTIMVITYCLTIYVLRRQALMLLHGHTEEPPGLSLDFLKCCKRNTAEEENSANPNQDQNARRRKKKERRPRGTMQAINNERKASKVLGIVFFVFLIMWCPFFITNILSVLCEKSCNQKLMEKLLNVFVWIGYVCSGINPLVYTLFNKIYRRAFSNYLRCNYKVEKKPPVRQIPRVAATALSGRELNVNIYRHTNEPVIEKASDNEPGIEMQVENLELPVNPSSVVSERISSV

[3] = mitragynine sample stability in validation of the detection method; details: short-term (4 h at room temperature), freeze-thaw (3 cycles), post-processing (16 h at 12° C.); any concentration tested
Source text: The coefficient of variation and relative error values at the three concentrations were obtained in the intra- and inter-day assays. See, FIG. 3.

Adenosine A2A = biological target: T3, Adenosine A2A (Homo sapiens, UniProt P29274); test: high throughput radioligand binding screen, Adenosine A2A
T3 construct: Novascreen Biosciences Corp

Serotonin, 5HT7 = biological target: T4, Serotonin, 5HT7 (Homo sapiens, UniProt P34969); test: high throughput radioligand binding screen, Serotonin 5HT7
T4 construct: Novascreen Biosciences Corp

Dopamine D2 = biological target: T5, Dopamine D2 (Homo sapiens, UniProt P14416); test: high throughput radioligand binding screen, Dopamine D2
T5 construct: Novascreen Biosciences Corp

mice = details: cited from earlier work
opioid receptors = details: guinea pig ileum, compared with morphine; cited from earlier work
[4] = naloxone i.p. group, no morphine
[5] = no morphine, compound 23 mg/kg p.o. + 10 mg/kg naloxone i.p.
[6] = no morphine, compound 100 mg/kg p.o. + 10 mg/kg naloxone i.p.
[7] = morphine 20-100 mg/kg i.p., then compound 23 mg/kg p.o.
[8] = morphine 20-100 mg/kg i.p., then compound 100 mg/kg p.o.
[9] = morphine i.p. + 10 mg/kg naloxone i.p.
[10] = morphine 20-100 mg/kg i.p. control, no replacement compound

T5 sequence (P14416 whole entry): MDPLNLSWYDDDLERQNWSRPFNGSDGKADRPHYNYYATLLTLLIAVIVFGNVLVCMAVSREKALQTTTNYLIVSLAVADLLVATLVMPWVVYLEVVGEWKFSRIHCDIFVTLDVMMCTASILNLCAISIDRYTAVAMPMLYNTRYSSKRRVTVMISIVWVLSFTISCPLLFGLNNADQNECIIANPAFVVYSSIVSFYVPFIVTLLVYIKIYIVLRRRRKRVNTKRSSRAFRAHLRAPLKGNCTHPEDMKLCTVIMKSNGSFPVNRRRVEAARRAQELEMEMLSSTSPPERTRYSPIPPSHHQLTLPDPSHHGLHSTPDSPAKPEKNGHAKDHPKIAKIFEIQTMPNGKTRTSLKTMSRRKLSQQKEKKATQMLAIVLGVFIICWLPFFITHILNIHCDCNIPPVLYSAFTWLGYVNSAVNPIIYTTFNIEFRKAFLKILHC
T3 sequence (P29274 whole entry): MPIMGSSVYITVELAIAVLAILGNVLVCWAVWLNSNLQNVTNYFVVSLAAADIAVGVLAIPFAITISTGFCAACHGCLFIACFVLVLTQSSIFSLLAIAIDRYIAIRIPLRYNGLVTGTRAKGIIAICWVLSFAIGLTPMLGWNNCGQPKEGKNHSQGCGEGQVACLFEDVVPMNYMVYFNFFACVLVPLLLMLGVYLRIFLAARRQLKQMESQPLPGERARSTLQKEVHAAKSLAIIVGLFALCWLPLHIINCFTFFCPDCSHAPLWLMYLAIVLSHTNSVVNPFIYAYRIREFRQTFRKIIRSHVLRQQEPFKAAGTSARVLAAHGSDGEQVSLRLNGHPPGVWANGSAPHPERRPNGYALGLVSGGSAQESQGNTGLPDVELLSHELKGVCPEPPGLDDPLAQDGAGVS
T1 sequence (A0A286XTF2 1-366): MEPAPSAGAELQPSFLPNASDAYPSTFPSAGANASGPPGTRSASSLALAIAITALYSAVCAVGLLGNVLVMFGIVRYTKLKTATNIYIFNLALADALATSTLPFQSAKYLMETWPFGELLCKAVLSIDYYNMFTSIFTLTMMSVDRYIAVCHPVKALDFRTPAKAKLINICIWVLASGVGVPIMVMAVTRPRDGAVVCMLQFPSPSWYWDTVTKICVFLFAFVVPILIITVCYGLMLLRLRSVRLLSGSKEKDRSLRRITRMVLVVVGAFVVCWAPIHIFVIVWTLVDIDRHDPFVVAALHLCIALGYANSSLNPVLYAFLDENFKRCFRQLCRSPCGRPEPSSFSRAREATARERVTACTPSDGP
T4 sequence (P34969 whole entry): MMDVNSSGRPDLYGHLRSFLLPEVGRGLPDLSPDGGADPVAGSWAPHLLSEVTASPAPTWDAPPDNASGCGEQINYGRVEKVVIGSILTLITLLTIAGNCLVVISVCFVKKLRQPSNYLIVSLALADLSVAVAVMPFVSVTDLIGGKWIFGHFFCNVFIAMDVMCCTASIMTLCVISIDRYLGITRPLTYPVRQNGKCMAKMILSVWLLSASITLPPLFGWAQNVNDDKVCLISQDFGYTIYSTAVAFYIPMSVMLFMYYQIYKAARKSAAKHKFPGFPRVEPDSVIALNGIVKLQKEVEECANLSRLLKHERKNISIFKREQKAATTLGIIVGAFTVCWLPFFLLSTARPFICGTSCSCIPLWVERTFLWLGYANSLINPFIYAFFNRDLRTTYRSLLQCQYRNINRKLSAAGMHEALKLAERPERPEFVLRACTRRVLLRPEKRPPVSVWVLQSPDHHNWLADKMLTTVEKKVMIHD

SMILES: C=CCN1CC[C@]23c4c5ccc(O)c4O[C@H]2C(=O)CC[C@@]3(O)[C@H]1C5 [Naloxone, naloxone]
- Jumping Frequency (withdrawal symptoms; [4]): 1.800 ± 0.9978
- Last Day % Weight Control (withdrawal symptoms; [4]): 99.94 ± 1.225 %
- Locomotor Activity (withdrawal symptoms; [4]): 3291 ± 145.3
- Paw Tremor Frequency (withdrawal symptoms; [4]): 3.800 ± 0.9978
- Teeth Chattering Frequency (withdrawal symptoms; [4]): 0.00 ± 0.00
- Wet Dog Shakes Frequency (withdrawal symptoms; [4]): 0.6000 ± 0.3399

SMILES: CCC(=O)C(CC(C)N(C)C)(c1ccccc1)c1ccccc1 (centres unmarked) [Methadone, methadone]
- Jumping Frequency (withdrawal symptoms; [5]): 0.00 ± 0.00
- Last Day % Weight Control (withdrawal symptoms; [5]): 96.64 ± 1.046 %
- Locomotor Activity (withdrawal symptoms; [5]): 2595 ± 288.4
- Paw Tremor Frequency (withdrawal symptoms; [5]): 6.400 ± 1.462
- Teeth Chattering Frequency (withdrawal symptoms; [5]): 0.00 ± 0.00
- Wet Dog Shakes Frequency (withdrawal symptoms; [5]): 2.000 ± 0.5164
- Jumping Frequency (withdrawal symptoms; [6]): 0.00 ± 0.00
- Last Day % Weight Control (withdrawal symptoms; [6]): 98.30 ± 0.6976 %
- Paw Tremor Frequency (withdrawal symptoms; [6]): 5.000 ± 1.549
- Teeth Chattering Frequency (withdrawal symptoms; [6]): 0.00 ± 0.00
- Wet Dog Shakes Frequency (withdrawal symptoms; [6]): 1.900 ± 0.5859
- Jumping Frequency [1, 7]: 0.00 ± 0.00
- Last Day % Weight Control [1, 7]: 100.1 ± 0.8121 %
- Locomotor Activity [1, 7]: 1866 ± 225.9
- Paw Tremor Frequency [1, 7]: 110.7 ± 8.809
- Teeth Chattering Frequency [1, 7]: 81.20 ± 8.704
- Wet Dog Shakes Frequency [1, 7]: 5.600 ± 0.9684
- Jumping Frequency [1, 8]: 1.111 ± 0.7536
- Last Day % Weight Control [1, 8]: 100.1 ± 1.205 %
- Locomotor Activity [1, 8]: 2512 ± 131.5
- Paw Tremor Frequency [1, 8]: 8.444 ± 1.692
- Teeth Chattering Frequency [1, 8]: 0.00 ± 0.00
- Wet Dog Shakes Frequency [1, 8]: 0.6667 ± 0.3333

SMILES: CN1CC[C@]23c4c5ccc(O)c4O[C@H]2[C@@H](O)C=C[C@H]3[C@H]1C5 [Morphine, morphine]
- Jumping Frequency (withdrawal symptoms; [9]): 21.6 ± 4.378
- Last Day % Weight Control (withdrawal symptoms; [9]): 89.64 ± 0.6012 %
- Locomotor Activity (withdrawal symptoms; [9]): 1870 ± 114.2
- Paw Tremor Frequency (withdrawal symptoms; [9]): 156.2 ± 7.124
- Teeth Chattering Frequency (withdrawal symptoms; [9]): 76.10 ± 6.572
- Wet Dog Shakes Frequency (withdrawal symptoms; [9]): 9.433 ± 1.334
- Jumping Frequency [1, 10]: 21.6 ± 4.378
- Last Day % Weight Control [1, 10]: 89.64 ± 0.6012 %
- Locomotor Activity [1, 10]: 1870 ± 114.2
- Paw Tremor Frequency [1, 10]: 156.2 ± 7.124
- Teeth Chattering Frequency [1, 10]: 76.10 ± 6.572
- Wet Dog Shakes Frequency [1, 10]: 9.433 ± 1.334

SMILES: CC[C@@H]1CN2CCc3c([nH]c4cccc(OC)c34)[C@@H]2C[C@@H]1/C(=C\OC)C(=O)OC [mitragynine]
- respiratory depression (respiratory depression): failed to identify respiratory depression
- Percentage inhibition of radioligand binding (Adrenergic (Alpha 2)): Adrenergic (Alpha 2): 61.92
- analgesic and antitussive properties [2]: comparable to codeine
- opioid withdrawal syndrome [2]: suppressed
- respiratory depression compared with codeine [2]: much less respiratory depression
- pKi (delta-opioid receptor): 7.22±0.21
- Percentage inhibition of radioligand binding (Serotonin, 5HT2C): Serotonin, 5HT2C: 58.77
- sample stability, variation [3]: ≤ 15%
- Jumping Frequency (withdrawal symptoms; [5]): 0.00 ± 0.00
- Last Day % Weight Control (withdrawal symptoms; [5]): 98.85 ± 0.8938 %
- Locomotor Activity (withdrawal symptoms; [5]): 3010 ± 108.1
- Paw Tremor Frequency (withdrawal symptoms; [5]): 1.800 ± 0.6464
- Teeth Chattering Frequency (withdrawal symptoms; [5]): 0.00 ± 0.00
- Wet Dog Shakes Frequency (withdrawal symptoms; [5]): 0.00 ± 0.00
- Percentage inhibition of radioligand binding (Adenosine A2A): Adenosine A2A: 65.66
- Percentage inhibition of radioligand binding (Serotonin, 5HT7): Serotonin, 5HT7: 64.41
- Percentage inhibition of radioligand binding (Dopamine D2): Dopamine D2: 54.22
- naloxone-precipitated morphine withdrawal symptoms ([1]; mice, p.o. for six days after morphine, in a similar manner as methadone): reduced
- Jumping Frequency [1, 7]: 0.00 ± 0.00
- Last Day % Weight Control [1, 7]: 101.3 ± 0.8619 %
- Locomotor Activity [1, 7]: 2485 ± 119.1
- Paw Tremor Frequency [1, 7]: 3.200 ± 0.7424
- Teeth Chattering Frequency [1, 7]: 0.00 ± 0.00
- Wet Dog Shakes Frequency [1, 7]: 0.6000 ± 0.2667

SMILES: CC[C@@H]1CN2CC[C@@]3(O)C(=Nc4cccc(OC)c43)[C@@H]2C[C@@H]1/C(=C\OC)C(=O)OC [7-hydroxymitragynine]
- antinociceptive activity (mice): potent antinociceptive activity
- opioid agonist potency (opioid receptors): higher potency than morphine

SMILES: CC[C@@H]1CN2CC[C@]3(Nc4cccc(OC)c4C3=O)[C@@H]2C[C@@H]1/C(=C\OC)C(=O)OC [mitragynine pseudoindoxyl]
- opioid agonist potency (opioid receptors): higher potency than morphine
